Laboratory results: patent publication EP3570868B1, “[…] ANTIMICROBIAL PEPTIDES AND THEIR APPLICATIONS FOR THE TREATMENT AND PREVENTION OF MUSCU[…]” (Ustav Organicke Chemie a Biochemie AV CR, v.v.i., priority 2017, dated 2018)

Tests used:
[1] = test system: S.e. (clin. isolate Motol); assay type: cell-based, Staphylococcus epidermidis; settings: 37° C for 20 h
Method: (§1) Gram-positive bacteria (Bacillus subtilis, Staphylococcus aureus, Staphylococcus epidermidis and Enterococcus faecalis), Gram-negative bacteria (Escherichia coli and Pseudomonas aeruginosa) and the yeast (Candida albicans) were grown to exponential phase and then were diluted with fresh medium. BHI medium (Oxoid, Great Britain) was used for Enterococcus faecalis; YPD medium containing yeast extract, peptone and glucose was used for Candida albicans and LB medium (Sigma, Czech Republic) was used for the remaining microorganisms. Then the microorganisms were added to the solutions of the tested antimicrobial peptides in LB medium in multi-well plates, so that the final peptide concentration it the wells was in the range of 0.5 to 100 µmοl.1^-1. The plates were incubated at 37° C for 20 h while being continuously shaken in a Bioscreen C (Oy Growth Curves AB Ltd., Helsinki, Finland). Absorbance was measured at 540 nm every 15 min. Antimicrobial activity (Table 2) was determined as a quantitative minimum inhibitory concentration (MIC) by observing bacterial growth in the presence of different concentrations of tested peptides. In the experiments, ca 10^5 CFU of bacteria or candida per well were used. Tetracycline in a concentration range of 0.5 - 100 µmol.1^-1 was used as a standard.
(§2) Clinical isolates of bacteria were obtained from University Hospital in Motol, Prague, Czech Republic and from Liberec Regional Hospital, Czech Republic. Methicillin resistant Staphylococcus aureus (MRSA) 6271 and Pseudomonas aeruginosa 5482 were from the Czech National Collection of Type Cultures, the National Institute of Public Health, Prague, Czech Republic. Other bacteria were from the Czech Collection of Microorganisms, Brno, Czech Republic. Candida albicans came from the Faculty of Medicine, Palacky University, Olomouc, Czech Republic. Candida tropicalis ATCC 750 and Candida glabrata DSY 565 were obtained from the Institute of Physiology, Academy of Sciences of the Czech Republic.

[2] = test system: P.a. (clin. isolate Liberec); assay type: cell-based, Pseudomonas aeruginosa; settings: 37° C for 20 h
Method: as §1, §2

[3] = test system: P.a. 5482; assay type: cell-based, Pseudomonas aeruginosa; settings: 37° C for 20 h
Method: as §1, §2

[4] = test system: E.f. (clin. isolate Motol); assay type: cell-based, Enterococcus faecalis; settings: 37° C for 20 h
Method: as §1, §2

[5] = test system: MRSA (clin. isolate Liberec); assay: Induced osteomyelitis model in femur heads: effect of peptides released from carrier on infection in the bone graft; assay type: cell-based, Staphylococcus aureus; settings: ChronOS (200 mg); 10 mg, separate holes; two days; carrier without peptide 3,4x10^7
Method: (§3) 3-4 holes of a diameter of 5 mm and a depth of 10 mm are drilled with a surgical spoon into a femur head under sterile conditions (spongy part of the bone in the resection site). Thereafter, this bone graft is put into a beaker of appropriate size and lined with sterile gauze squares. The gauze is moistened with sterile physiological saline to prevent drying of the bone. Then, suspension of multiplied microbes in an appropriate medium (50-100 µl) at a concentration of 10^7 to 10^9 CFU is sequentially applied to the prepared holes in the bone graft and allowed to incubate for 1-2 days. […] Beaker with the infected bone graft is covered with a sterile Petri dish. During the experiment, induced osteomyelitis models are kept protected from light at room temperature.
(§4) After the incubation, the infected holes in the bone are filled with a mixture of the local carrier, and a peptide selected from the series of peptides of formulae I to XIII or their specific enantiomers (Figure 1). For comparison, one of the holes is filled with the local carrier without peptide, or the carrier filled with antibiotic (vancomycin or gentamicin). A commercially available two-component material supplied by Synthes (Synthes GmbH, Switzerland) under the name ChronOS Inject was used as the carrier. Its solid component comprises a mixture of calcium phosphates CaHPO4.2H2O and Ca3(PO4)2 and additives, the liquid component is 0.5% (vol./vol.) solution of hyaluronic acid.
(§5) After two days, the filling is thoroughly removed with a surgical spoon and empty holes are wiped with moistened sterile cotton swab, which is then extracted into 400 µl physiological saline. The extract is diluted in a tenfold serial dilution and each diluted suspension is cultured on agar in Petri dishes; the culture is evaluated on the following day. […] The result of the peptide effect is also compared with the result of the effect of antibiotics. In some cases, microbiological examination of the bone tissue taken with a surgical spoon from a deeper area of the drilled holes is performed. […] Table 3. Evaluation of the effect of antimicrobial peptides released from the carrier on an infection in the bone graft. Effect of antimicrobial activity is expressed in the number of CFU (colony-forming units) in the infected hole after swabbing.

[6] = test system: MRSA 6271; assay: as above; assay type: cell-based, Staphylococcus aureus; settings: ChronOS (200 mg), two days, carrier without peptide 7,0x10^7
Method: as §3, §4, §5

[7] = test system: Escherichia coli; assay type: cell-based; settings: E.c.; 37° C for 20 h
Method: as §1, §2

[8] = test system: Candida albicans; assay type: cell-based; settings: C.a.; 37° C for 20 h
Method: as §1, §2

[9] = test system: Bacillus subtilis; assay type: cell-based; settings: B.s.; 37° C for 20 h
Method: as §1, §2

[10] = test system: Candida albicans (clin. isolate Olomouc); assay: Biofilm formation on the surface of a bone cement implant in femur heads; assay type: cell-based; settings: two days
Method: (§6) The resulting elastic paste is placed into a 2 ml plastic syringe (without needle) and pressed into the infected holes in the spongy part of the bone, where it polymerizes and hardens. For comparison, other similarly infected holes are filled with cement containing only an antibiotic or antimycotic agent. For comparison, a Vancogenx® cement (Tecresa S. p. A., Italy) is used, made from a mixture of a powdered polymer component containing vancomycin and gentamicin. The mixture in an amount of 125 mg is mixed with liquid monomer (50-60 µl) and then pressed into the openings as described above. In another embodiment, the cements are applied to uninfected holes, allowed to harden, and then microbes are pipetted into the hole excavated between implants. From there they penetrate through bone tissue and settle on the implants with consequent formation of biofilms.
(§7) After two days, implants are removed with metal spikes and tweezers, mechanically cleaned from debris of bone tissue, and washed four times with physiological saline (0.5 ml) in plastic tubes to remove any residual planktonic microbes or bone cells from their surface. The implants in closed tubes with 0.4 ml saline are then sonicated four times for 3 min with occasional shaking. The of microbial biofilm on the surface of the implant is thus disrupted and microbes are loosed into the physiological saline. The resulting suspension is subsequently diluted using the tenfold serial dilution for culturing on agar.
(§8) Evaluation of the effect of antimicrobial peptides on the formation of microbial biofilm on the surface of the implant made of the bone cement.

[11] = test system: Enterococcus faecalis (clin. isolate Motol); assay: as above; assay type: cell-based; settings: two days
Method: as §6
(§9) After two days, implants are removed with metal spikes and tweezers, mechanically cleaned from debris of bone tissue, and washed four times with physiological saline (0.5 ml) in plastic tubes to remove any residual planktonic microbes or bone cells from their surface. The implants in closed tubes with 0.4 ml saline are then sonicated four times for 3 min with occasional shaking. The of microbial biofilm on the surface of the implant is thus disrupted and microbes are loosed into the physiological saline. […]

[12] = test system: P. aeruginosa (clin. isolate Liberec); assay: as above; assay type: cell-based; settings: two days, cement without peptide N/A
Method: (§10) The resulting elastic paste is placed into a 2 ml plastic syringe (without needle) and pressed into the infected holes in the spongy part of the bone, where it polymerizes and hardens. For comparison, other similarly infected holes are filled with cement containing only an antibiotic or antimycotic agent. […] The mixture in an amount of 125 mg is mixed with liquid monomer (50-60 µl) and then pressed into the openings as described above. In another embodiment, the cements are applied to uninfected holes, allowed to harden, and then microbes are pipetted into the hole excavated between implants. From there they penetrate through bone tissue and settle on the implants with consequent formation of biofilms.
(§11) After two days, implants are removed with metal spikes and tweezers, mechanically cleaned from debris of bone tissue, and washed four times with physiological saline (0.5 ml) in plastic tubes to remove any residual planktonic microbes or bone cells from their surface. The implants in closed tubes with 0.4 ml saline are then sonicated four times for 3 min with occasional shaking. The of microbial biofilm on the surface of the implant is thus disrupted and microbes are loosed into the physiological saline. The resulting suspension is subsequently diluted using the tenfold serial dilution for culturing on agar. […]

[13] = test system: S. epidermidis (clin. isolate Motol); assay: Induced osteomyelitis model in femur heads: effect of peptides released from carrier on infection in the bone graft; assay type: cell-based; settings: ChronOS (300 mg); 10 mg, separate holes; two days; carrier without peptide 1,2x10^5
Method: as §3, §4, §5

[14] = test system: MRSA (clin. isolate Motol); assay: Biofilm formation on the surface of a bone cement implant in femur heads; assay type: cell-based, Staphylococcus aureus; settings: two days, cement without peptide 3,4x10^5
Method: as §6, §9

[15] = test system: MRSA (clin. isolate Motol); assay type: cell-based, Staphylococcus aureus; settings: 37° C for 20 h
Method: as §1, §2

[16] = test system: MRSA (clin. isolate Liberec); assay type: cell-based, Staphylococcus aureus; settings: 37° C for 20 h
Method: as §1, §2

[17] = test system: MRSA 6271; assay type: cell-based, Staphylococcus aureus; settings: 37° C for 20 h
Method: as §1, §2

[18] = test system: MRSA 6271; assay: Biofilm formation on the surface of a bone cement implant in femur heads; assay type: cell-based, Staphylococcus aureus; settings: two days, cement without peptide N/A
Method: as §6, §7, §8

[19] = test system: human red blood cells; assay: Determination of haemolytic activity; assay type: cell-based; settings: human red blood cells (5% v/v), 1 h at 37 °C; concentration for lysis of 50% of erythrocytes
Method: The peptides in the concentrations 2-400 µmol.1^-1 were incubated with the suspension of human red blood cells (5% v/v) for 1 h at 37 °C in a physiological solution at a final volume of 0.2 ml. The samples were then centrifuged for 5 min at 250 g. The absorbance of the supernatant was determined at 540 nm. 0.2% (v/v) TRITON X100 was used as a control for 100% haemolysis. Haemolytic activity is expressed as the peptide concentration required for lysis of 50% of human erythrocytes in the assay (LC50). Table 2. Antimicrobial and haemolytic activity of I up to XIII peptides and tetracycline.

[20] = test system: Candida tropicalis ATCC 750; assay: Biofilm formation on the surface of a bone cement implant in femur heads; assay type: cell-based; settings: two days, cement without peptide 3.7x10^5
Method: as §10, §11

[21] = test system: P. aeruginosa 5482; assay: as above; assay type: cell-based; settings: two days, cement without peptide 2.8x10^6
Method: as §10, §11

[22] = test system: Candida albicans ATCC MYA-2876; assay: as above; assay type: cell-based; settings: two days, cement without peptide 4.4x10^5
Method: as §10, §11

[23] = test system: Candida albicans yeast (clinical isolate Olomouc); assay: Comparison of two similar halictin peptides for biofilm formation on the implant surface (yeast pipetted into a hole between implants); assay type: cell-based; settings: 3.5 mg peptide in 100 mg powder cement component; two days; implant without peptide 1.8 × 10^3
Method: The experiment was performed under similar conditions as described in Example 5. Here, 100 mg of the powder cement component was used to prepare a paste, which was mixed with in 3.5 mg of peptide XIII and subsequently 52 µl of liquid component. The resulting paste was thoroughly mixed and then pressed into a hole prepared in the spongy part of the bone. To a next hole in the spongy part of the same bone a paste was pressed, containing comparative peptide Hal 2/4 (3.5 mg) with the sequence H-[…]NH2, which was also prepared from 100 mg of the powder component and 52 µl of the liquid component. The third hole was filled with paste without peptide prepared from the same amount of components. The Candida albicans yeast (clinical isolate Olomouc), grown in YPG, was pipetted in the hole excavated between implants equidistant (approximately 1 cm) from each. From there, the yeast penetrated through the bone tissue and was deposited on the implant with consequent formation of biofilms.
Then the implants in closed tubes with 0.4 ml of saline were treated ultrasonically four times for three minutes with occasional shaking. This way, microbial biofilm on the surface of the implant was disrupted and microbes loosed into the physiological saline. The resulting suspension was then diluted in a decimal dilution series for culturing on agar. […]

[24] = test system: Candida glabrata DSY565; assay: Biofilm formation on the surface of a bone cement implant in femur heads; assay type: cell-based; settings: two days, cement without peptide 1.3x10^6
Method: as §6, §9

SMILES	Antimicrobial activity MIC [1]	Antimicrobial activity MIC [2]	Antimicrobial activity MIC [3]	Antimicrobial activity MIC [4]	Antimicrobial activity MIC [7]	Antimicrobial activity MIC [8]	Antimicrobial activity MIC [9]	Antimicrobial activity MIC [15]	Antimicrobial activity MIC [16]	Antimicrobial activity MIC [17]	Hemolytic activity LC50 [19]	other results
CC[C@H](C)[C@H](NC(=O)[C@H](CCCCN)NC(=O)[C@H](CCCCN)NC(=O)[C@H](CC(C)C)NC(=O)[C@H](CC(C)C)NC(=O)[C@H](CCCCN)NC(=O)[C@H](CCSC)NC(=O)[C@H](Cc1c[nH]c2ccccc12)NC(=O)[C@H](CCCCN)NC(=O)CN)C(=O)N[C@@H](CC(C)C)C(=O)N[C@@H](CCCCN)C(N)=O [III]	2,3 µmol.l^-1	10,0 µmol.l^-1	2,8 µmol.l^-1	13,3 µmol.l^-1	9,0 µmol.l^-1	5,7 µmol.l^-1	1,8 µmol.l^-1	5,7 µmol.l^-1	3,6 µmol.l^-1	6,3 µmol.l^-1	339 µM	CFU/hole [5]: 2,3x10^5 / 2,3x10^5 CFU/hole; CFU/hole ([6]; III (5 mg)): 1,9x10^2 CFU/hole; CFU/hole ([6]; III (10 mg)): 7,6x10^2 CFU/hole; CFU/implant ([10]; cement without peptide 6.0x10^3): 2 CFU/implant; CFU/implant ([11]; cement without peptide 2.8x10^6): 0 CFU/implant; CFU/implant ([11]; cement without peptide 2.9x10^5): 0 CFU/implant; CFU/implant [12]: 1.1x10^3 CFU/implant; CFU/hole [13]: 0 in all cases CFU/hole; CFU/implant [14]: 0 CFU/implant; CFU/implant ([18]; first experiment with III): 5.1 x 10^3 CFU/implant; CFU/implant ([18]; second experiment with III): 0 CFU/implant; CFU/implant [20]: 0 CFU/implant; CFU/implant [21]: 2.6x10^1 CFU/implant
CC[C@H](C)[C@H](NC(=O)[C@H](CCCCN)NC(=O)[C@H](CCCCN)NC(=O)[C@@H](CC(C)C)NC(=O)[C@H](CC(C)C)NC(=O)[C@H](CCCCN)NC(=O)[C@H](CCSC)NC(=O)[C@H](Cc1c[nH]c2ccccc12)NC(=O)[C@H](CCCCN)NC(=O)CN)C(=O)N[C@@H](CC(C)C)C(=O)N[C@@H](CCCCN)C(N)=O [XIII]	4,0 µmol.l^-1	32,0 µmol.l^-1	5,0 µmol.l^-1	>100 µmol/L	10,0 µmol.l^-1	8,0 µmol.l^-1	2,8 µmol.l^-1	32,0 µmol.l^-1	13,3 µmol.l^-1	18,7 µmol.l^-1	>400 µM	CFU/implant [22]: 6.0x10^3 CFU/implant; number of colonies from the surface of the implant [23]: zero; CFU/implant [24]: 2.4x10^3 CFU/implant; CFU/implant ([10]; cement without peptide 8.0x10^4): 0 CFU/implant
